Earlier results, collected in article PMC11340619 (Redox Biology, 2024).

Tested on: hepatic I/R injury
Conditions: in mice; NRF2 agonist treatment; ref [14],[15]

Compound | hepatic I/R injury
C=C(CC(=O)O)C(=O)O [itaconate] | alleviate hepatic I/R injury in mice
C[S+]([O-])CCCCN=C=S (centres unmarked) [sulforaphane] | alleviate hepatic I/R injury in mice
